Data from PubChem BioAssay (NCI).
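GI50 is the concentration that inhibits growth by half. At the TGI there is no net growth.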

Assays:
Experiment in all cases: inhibition of tumour cell growth, NCI panel, 384-well format
[1] = system: PC-3 prostate
[2] = system: MDA-MB-468 breast
[3] = system: 786-0 renal
[4] = system: TK-10 renal
[5] = system: SK-OV-3 ovarian
[6] = system: SF-268 CNS
[7] = system: BT-549 breast
[8] = system: M14 melanoma
[9] = system: OVCAR-3 ovarian
[10] = system: OVCAR-8 ovarian
[11] = system: MDA-MB-231 breast
[12] = system: SK-MEL-5 melanoma
[13] = system: SR leukemia
[14] = system: SW-620 colon
[15] = system: RPMI-8226 leukemia
[16] = system: NCI/ADR-RES ovarian
[17] = system: K-562 leukemia
[18] = system: OVCAR-4 ovarian
[19] = system: A549 NSCLC
[20] = system: MALME-3M melanoma
[21] = system: UACC-257 melanoma
[22] = system: MOLT-4 leukemia
[23] = system: CCRF-CEM leukemia
[24] = system: COLO 205 colon
[25] = system: NCI-H322M lung
[26] = system: UACC-62 melanoma
[27] = system: HCC-2998 colon
[28] = system: SF-295 CNS
[29] = system: KM12 colon
[30] = system: HOP-62 NSCLC
[31] = system: SNB-75 CNS
[32] = system: NCI-H226 lung
[33] = system: DU-145 prostate
[34] = system: IGROV1 ovarian
[35] = system: A498 renal
[36] = system: EKVX NSCLC
[37] = system: OVCAR-5 ovarian
[38] = system: NCI-H23 lung
[39] = system: CAKI-1 renal
[40] = system: HCT-15 colon
[41] = system: NCI-H522 lung
[42] = system: UO-31 renal
[43] = system: SNB-19 CNS
[44] = system: HL-60(TB) leukemia
[45] = system: SK-MEL-28 melanoma
[46] = system: ACHN renal
[47] = system: SF-539 CNS
[48] = system: LOX IMVI melanoma
[49] = system: SN12C renal
[50] = system: RXF 393 renal
[51] = system: HT29 colon
[52] = system: NCI-H460 NSCLC
[53] = system: MDA-MB-435 melanoma
[54] = system: T-47D breast
[55] = system: MCF7 breast

## Cc1nc2ccc(CN(C)c3ccc(C(=O)N[C@@H](CCC(=O)O)C(=O)O)s3)cc2c(=O)[nH]1
[1]
  GI50: < 10 nM
  TGI: > 100000 nM
[2]
  GI50: > 100000 nM
  TGI: > 100000 nM
[3]
  GI50: < 10 nM
  TGI: > 100000 nM
[4]
  GI50: < 10 nM
  TGI: > 100000 nM
[5]
  GI50: < 10 nM
  TGI: > 100000 nM
[6]
  GI50: < 10 nM
  TGI: < 10 nM
[7]
  GI50: < 10 nM
  TGI: > 100000 nM
[8]
  GI50: < 10 nM
  TGI: < 10 nM
[9]
  GI50: < 10 nM
  TGI: > 100000 nM
[10]
  GI50: < 10 nM
  TGI: > 100000 nM
[11]
  GI50: 8370 nM
  TGI: > 100000 nM
[12]
  GI50: > 100000 nM
  TGI: > 100000 nM
[13]
  GI50: < 10 nM
  TGI: < 10 nM
[14]
  GI50: < 10 nM
  TGI: > 100000 nM
[15]
  GI50: < 10 nM
  TGI: < 10 nM
[16]
  GI50: < 10 nM
  TGI: < 10 nM
[17]
  GI50: < 10 nM
  TGI: > 100000 nM
[18]
  GI50: > 100000 nM
  TGI: > 100000 nM
[19]
  GI50: < 10 nM
  TGI: > 100000 nM
[20]
  GI50: 17.9 nM
  TGI: > 100000 nM
[21]
  GI50: 6070 nM
  TGI: > 100000 nM
[22]
  GI50: < 10 nM
  TGI: < 10 nM
[23]
  GI50: < 10 nM
  TGI: < 10 nM
[24]
  GI50: < 10 nM
  TGI: > 100000 nM
[25]
  GI50: > 100000 nM
  TGI: > 100000 nM
[26]
  GI50: 23.3 nM
  TGI: > 100000 nM
[27]
  GI50: < 10 nM
  TGI: > 100000 nM
[28]
  GI50: < 10 nM
  TGI: < 10 nM
[29]
  GI50: > 100000 nM
  TGI: > 100000 nM
[30]
  GI50: < 10 nM
  TGI: 19.5 nM
[31]
  GI50: < 10 nM
  TGI: > 100000 nM
[32]
  GI50: 55500 nM
  TGI: > 100000 nM
[33]
  GI50: < 10 nM
  TGI: > 100000 nM
[34]
  GI50: 46.2 nM
  TGI: > 100000 nM
[35]
  GI50: < 10 nM
  TGI: > 100000 nM
[36]
  GI50: > 100000 nM
  TGI: > 100000 nM
[37]
  GI50: < 10 nM
  TGI: > 100000 nM
[38]
  GI50: 490 nM
  TGI: > 100000 nM
[39]
  GI50: < 10 nM
  TGI: > 100000 nM
[40]
  GI50: < 10 nM
  TGI: > 100000 nM
[41]
  GI50: < 10 nM
  TGI: < 10 nM
[42]
  GI50: < 10 nM
  TGI: > 100000 nM
[43]
  GI50: < 10 nM
  TGI: 98.7 nM
[44]
  GI50: < 10 nM
  TGI: < 10 nM
[45]
  GI50: < 10 nM
  TGI: > 100000 nM
[46]
  GI50: < 10 nM
  TGI: > 100000 nM
[47]
  GI50: < 10 nM
  TGI: > 100000 nM
[48]
  GI50: < 10 nM
  TGI: > 100000 nM
[49]
  GI50: < 10 nM
  TGI: < 10 nM
[50]
  GI50: 11.9 nM
  TGI: > 100000 nM
[51]
  GI50: < 10 nM
  TGI: > 100000 nM
[52]
  GI50: < 10 nM
  TGI: > 100000 nM
[53]
  GI50: < 10 nM
  TGI: > 100000 nM
[54]
  GI50: < 10 nM
  TGI: > 100000 nM
[55]
  GI50: < 10 nM
  TGI: > 100000 nM
